According to US20150105252A1, “SUBSTITUTED PYRAZOLES AS HERBICIDES” (E I DU PONT DE NEMOURS AND COMPANY, priority 2013, published 2015):

Columns and labels:
barnyardgrass [1] = experiment: Test A preemergence; type: in vivo, Echinochloa crus-galli; details: preemergence
Method in brief: (§1)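 Injury readout: eye-scored versus untreated controls, 0 to 100. Exposure period: ~10 days, greenhouse. Application: soil-directed spray over sown seed (pre) or spray on seedlings 2–10 cm tall with one or two leaves (post), compound carried in non-phytotoxic solvent including surfactant.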

blackgrass = experiment: Test C preemergence; type: in vivo, Alopecurus myosuroides; details: for Blackgrass plant response rating: scale 0 to 100 (0 no effect, 100 complete control)
Method in brief: (§2)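 Herbicidal effect is expressed as percent visual control (0–100) judged against untreated plants 13 to 15 days after treatment in the greenhouse. Preemergence pots contained seeds in a soil–sand blend; postemergence plants, 2–18 cm tall, grew in peat-based planting medium.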

pigweed = experiment: Test A postemergence; type: in vivo, Amaranthus retroflexus
Method in brief: as §1

wheat [2] = experiment: Test A postemergence; type: in vivo, Triticum aestivum
Method in brief: as §1

velvetleaf = experiment: Test C preemergence; type: in vivo, Abutilon theophrasti; details: for Velvetleaf plant response rating: scale 0 to 100 (0 no effect, 100 complete control)
Method in brief: as §2

ragweed = experiment: Test C preemergence; type: in vivo, Ambrosia elation; details: for Ragweed plant response rating: scale 0 to 100 (0 no effect, 100 complete control)
Text: (§3) Seeds of plant species selected from blackgrass (Alopecurus myosuroides), ryegrass, Italian (Italian ryegrass, Lolium multiflorum), wheat (winter wheat, Triticum aestivum), galium (catchweed bedstraw, Galium aparine), corn (Zea mays), crabgrass, large (large crabgrass, Digitaria sanguinalis), foxtail, giant (giant foxtail, Setaria faberii), johnsongrass (Sorghum halepense), lambsquarters (Chenopodium album), morningglory (Ipomoea coccinea), nutsedge, yellow (yellow nutsedge, Cyperus esculentus), pigweed (redroot pigweed, Amaranthus retroflexus), ragweed (common ragweed, Ambrosia elation), soybean (Glycine max), barnyardgrass (Echinochloa crus-galli), oilseed rape (Brassica napus), waterhemp (common waterhemp, Amaranthus rudis), oat, wild (wild oat, Avena fatua), kochia (Kochia scoparia), Surinam grass (Brachiaria decumbens), foxtail, green (green foxtail, Setaria viridis), goosegrass (Eleusine indica), bromegrass, downy (downy bromegrass, Bromus tectorum), nightshade (eastern black nightshade, Solanum ptycanthum), cocklebur (common cocklebur, Xanthium strumarium), cupgrass, woolly (woolly cupgrass, Eriochloa villosa), bermudagrass (Cynodon dactylon), sunflower, (common oilseed sunflower, Helianthus annuus), Russian thistle (Salsola kali), and velvetleaf (Abutilon theophrasti) were planted into a blend of loam soil and sand and treated preemergence with test chemicals formulated in a non-phytotoxic solvent mixture which included a surfactant.
(§4) At the same time, plants selected from these crop and weed species and also chickweed (common chickweed, Stellaria media), canarygrass (littleseed canarygrass, Phalaris minor), and deadnettle (henbit deadnettle, Lamium amplexicaule), were planted in pots containing Redi-Earth® planting medium (Scotts Company, 14111 Scottslawn Road, Marysville, Ohio 43041) comprising spaghnum peat moss, vermiculite, wetting agent and starter nutrients and treated with postemergence applications of test chemicals formulated in the same manner. Plants ranged in height from 2 to 18 cm (1- to 4-leaf stage) for postemergence treatments. Treated plants and controls were maintained in a greenhouse for 13 to 15 days, after which time all species were compared to controls and visually evaluated. Plant response ratings, summarized in Table C, are based on a scale of 0 to 100 where 0 is no effect and 100 is complete control. A dash (-) response means no test result.

barnyardgrass [3] = experiment: Test C preemergence; type: in vivo, Echinochloa crus-galli; details: for Barnyardgrass plant response rating: scale 0 to 100 (0 no effect, 100 complete control)
Method in brief: as §2

oilseed rape = experiment: Test C preemergence; type: in vivo, Brassica napus; details: for Oilseed Rape plant response rating: scale 0 to 100 (0 no effect, 100 complete control)
Method in brief: as §2

wheat [4] = experiment: Test C preemergence; type: in vivo, Triticum aestivum; details: for Wheat plant response rating: scale 0 to 100 (0 no effect, 100 complete control)
Text: as §3, §4

foxtail, giant = experiment: Test C preemergence; type: in vivo, Setaria faberii; details: for Foxtail, Giant plant response rating: scale 0 to 100 (0 no effect, 100 complete control)
Method in brief: as §2

johnsongrass = experiment: Test C preemergence; type: in vivo, Sorghum halepense; details: for Johnsongrass plant response rating: scale 0 to 100 (0 no effect, 100 complete control)
Text: as §3, §4

corn = experiment: Test C preemergence; type: in vivo, Zea mays; details: for Corn plant response rating: scale 0 to 100 (0 no effect, 100 complete control)
Method in brief: as §2

[5] = preemergence, 31 g ai/ha, visual rating, 13 to 15 days
[6] = preemergence, 62 g ai/ha, 13 to 15 days
[7] = preemergence, 125 g ai/ha, 13 to 15 days, scale 0 to 100, 0 = no effect, 100 = complete control
[8] = Postemergence, 500 g ai/ha, 0 to 100 scale (0 no effect, 100 complete control)
[9] = postemergence, 125 g ai/ha, about 10 days, visual rating on 0 to 100 scale (0 no effect, 100 complete control)

## CCOc1cc(C(=O)NC2CC2)nn1Cc1ccnc(OC(F)F)c1 [Compound 133]
Barnyardgrass [1]; 125 g ai/ha, visual injury, 0 to 100 scale, approx. 10 days
  Barnyardgrass plant response rating: 90
Barnyardgrass [1]; 500 g ai/ha, visual injury after approx. 10 days, 0 to 100 scale (0 no effect, 100 complete control)
  Barnyardgrass plant response rating: 100
blackgrass; Preemergence, 250 g ai/ha
  Plant response rating (scale of 0 to 100), Blackgrass: 95
blackgrass; [5]
  Blackgrass plant response rating: 85
blackgrass; [6]
  Blackgrass plant response rating: 90
blackgrass; [7]
  Plant response rating, Blackgrass: 90
pigweed; [8]
  Pigweed plant response rating: 100
pigweed; [9]
  Pigweed plant response rating: 100
Wheat [2]; [8]
  Wheat plant response rating: 90
Wheat [2]; [9]
  Wheat plant response rating: 40
velvetleaf; Preemergence, 250 g ai/ha
  Plant response rating (scale of 0 to 100), Velvetleaf: 100
velvetleaf; [5]
  Velvetleaf plant response rating: 35
velvetleaf; [6]
  Velvetleaf plant response rating: 55
velvetleaf; [7]
  Plant response rating, Velvetleaf: 100
ragweed; Preemergence, 250 g ai/ha
  Plant response rating (scale of 0 to 100), Ragweed: 100
ragweed; [5]
  Ragweed plant response rating: 10
ragweed; [6]
  Ragweed plant response rating: 60
ragweed; [7]
  Plant response rating, Ragweed: 100
Barnyardgrass [3]; Preemergence, 250 g ai/ha
  Plant response rating (scale of 0 to 100), Barnyardgrass: 100
Barnyardgrass [3]; preemergence, 31 g ai/ha, 13 to 15 days
  Barnyardgrass plant response rating: 65
Barnyardgrass [3]; [6]
  Barnyardgrass plant response rating: 60
Barnyardgrass [3]; [7]
  Plant response rating, Barnyardgrass: 100
Oilseed rape; Preemergence, 250 g ai/ha
  Plant response rating (scale of 0 to 100), Oilseed Rape: 100
Oilseed rape; [5]
  Oilseed Rape plant response rating: 60
Oilseed rape; [6]
  Oilseed Rape plant response rating: 100
Oilseed rape; [7]
  Plant response rating, Oilseed Rape: 100
Wheat [4]; Preemergence, 250 g ai/ha
  Plant response rating (scale of 0 to 100), Wheat: 90
Wheat [4]; [5]
  Wheat plant response rating: 0
Wheat [4]; [6]
  Wheat plant response rating: 45
Wheat [4]; [7]
  Plant response rating, Wheat: 90
foxtail, giant; Preemergence, 250 g ai/ha
  Plant response rating (scale of 0 to 100), Foxtail, Giant: 100
foxtail, giant; [5]
  Foxtail, Giant plant response rating: 85
foxtail, giant; [6]
  Foxtail, Giant plant response rating: 100
foxtail, giant; [7]
  Plant response rating, Foxtail, Giant: 100
johnsongrass; Preemergence, 250 g ai/ha
  Plant response rating (scale of 0 to 100), Johnsongrass: 98
johnsongrass; [5]
  Johnsongrass plant response rating: 40
johnsongrass; [6]
  Johnsongrass plant response rating: 85
johnsongrass; [7]
  Plant response rating, Johnsongrass: 90
corn; Preemergence, 250 g ai/ha
  Plant response rating (scale of 0 to 100), Corn: 95
corn; [5]
  Corn plant response rating: 5
corn; [6]
  Corn plant response rating: 25
corn; [7]
  Plant response rating, Corn: 45
